Data from article PMC5218480 (PLoS ONE, 2017).

System: MV-4-11 cells
Test: Gene expression microarray analysis (Affymetrix PrimeView) and GSEA
Type: cell-based, human
Design: RFU PODN (11730768_x_at) / Fold change /veh PODN (11730768_x_at) / RFU LINC00158 (11744669_a_at) / Fold change /veh LINC00158 (11744669_a_at) / RFU DUSP10 (11751237_a_at) / Fold change /veh DUSP10 (11751237_a_at) / RFU ID3 (11757404_x_at) / Fold change /veh ID3 (11757404_x_at) / RFU PLEKHG5 (11737974_s_at) / Fold change /veh PLEKHG5 (11737974_s_at) / RFU LRRC4B (11730491_at) / Fold change /veh LRRC4B (11730491_at) / RFU GIMAP4 (11747438_a_at) / Fold change /veh GIMAP4 (11747438_a_at) / RFU KRT8 (11758183_x_at) / Fold change /veh KRT8 (11758183_x_at) / RFU CNN1 (11734310_a_at) / Fold change /veh CNN1 (11734310_a_at) / RFU VPS37D (11726825_at) / Fold change /veh VPS37D (11726825_at) / RFU C10orf10 (11716522_x_at) / Fold change /veh C10orf10 (11716522_x_at) / RFU KIR2DL2 /// KIR2DL4 /// KIR2DL5A /// KIR2DL5B /// KIR2DS1 /// KIR2DS2 /// KIR2DS3 /// KIR2DS4 /// KIR3DL3 /// KIR3DL3 /// KIR3DS1 (11738374_at) / Fold change /veh KIR2DL2 /// KIR2DL4 /// KIR2DL5A /// KIR2DL5B /// KIR2DS1 /// KIR2DS2 /// KIR2DS3 /// KIR2DS4 /// KIR3DL3 /// KIR3DL3 /// KIR3DS1 (11738374_at) / RFU C1QL1 (11718748_at) / Fold change /veh C1QL1 (11718748_at) / RFU TMPRSS4 (11747572_a_at) / Fold change /veh TMPRSS4 (11747572_a_at) / RFU HAMP (11756126_x_at) / Fold change /veh HAMP (11756126_x_at) / RFU RNFT2 (11725882_a_at) / Fold change /veh RNFT2 (11725882_a_at) / RFU NR4A2 (11747474_a_at) / Fold change /veh NR4A2 (11747474_a_at) / RFU ABCC12 (11746883_a_at) / Fold change /veh ABCC12 (11746883_a_at) / RFU TMEM136 (11760407_x_at) / Fold change /veh TMEM136 (11760407_x_at) / RFU CLDN22 /// WWC2 (11732394_at) / Fold change /veh CLDN22 /// WWC2 (11732394_at) / RFU HLA-DPB1 (11760878_x_at) / Fold change /veh HLA-DPB1 (11760878_x_at) / RFU SPINT1 (11716480_a_at) / Fold change /veh SPINT1 (11716480_a_at) / RFU GAP43 (11754022_s_at) / Fold change /veh GAP43 (11754022_s_at) / RFU A4GNT (11735810_at) / Fold change /veh A4GNT (11735810_at) / RFU PRB3 (11715151_x_at) / Fold change /veh PRB3 (11715151_x_at) / RFU TUBB4B (11761932_at) / Fold change /veh TUBB4B (11761932_at) / RFU CAPN14 (11732068_a_at) / Fold change /veh CAPN14 (11732068_a_at) / RFU TMCC2 (11721928_a_at) / Fold change /veh TMCC2 (11721928_a_at) / RFU IRGQ (11745062_a_at) / Fold change /veh IRGQ (11745062_a_at) / RFU FAM174B (11720279_a_at) / Fold change /veh FAM174B (11720279_a_at) / RFU TMPRSS4 (11748680_a_at) / Fold change /veh TMPRSS4 (11748680_a_at) / RFU FAM212B (11763350_a_at) / Fold change /veh FAM212B (11763350_a_at) / RFU PLEKHG5 (11743358_a_at) / Fold change /veh PLEKHG5 (11743358_a_at) / RFU ZSCAN30 (11745921_a_at) / Fold change /veh ZSCAN30 (11745921_a_at) / RFU CMKLR1 (11741424_a_at) / Fold change /veh CMKLR1 (11741424_a_at) / RFU LOC101060620 /// MAPK8IP1 (11723275_at) / Fold change /veh LOC101060620 /// MAPK8IP1 (11723275_at) / RFU SPTSSB (11747773_x_at) / Fold change /veh SPTSSB (11747773_x_at) / RFU PRSS12 (11739890_at) / Fold change /veh PRSS12 (11739890_at) / RFU BIN1 (11741810_x_at) / Fold change /veh BIN1 (11741810_x_at) / RFU WNT11 (11732464_a_at) / Fold change /veh WNT11 (11732464_a_at) / RFU C10orf10 (11716521_a_at) / Fold change /veh C10orf10 (11716521_a_at) / RFU C5orf56 (11738089_at) / Fold change /veh C5orf56 (11738089_at) / RFU CYB561 (11721691_x_at) / Fold change /veh CYB561 (11721691_x_at) / RFU ANKRD19P (11752326_a_at) / Fold change /veh ANKRD19P (11752326_a_at) / RFU OR2T12 /// OR2T33 /// OR2T8 (11738714_s_at) / Fold change /veh OR2T12 /// OR2T33 /// OR2T8 (11738714_s_at) / RFU VCAN (11748164_a_at) / Fold change /veh VCAN (11748164_a_at) / RFU JSRP1 (11732532_at) / Fold change /veh JSRP1 (11732532_at) / RFU KRTAP10-11 (11738290_x_at) / Fold change /veh KRTAP10-11 (11738290_x_at) / RFU MYO3A (11730013_a_at) / Fold change /veh MYO3A (11730013_a_at) / RFU EBF3 (11725865_a_at) / Fold change /veh EBF3 (11725865_a_at) / RFU CAMK2N1 (11719241_x_at) / Fold change /veh CAMK2N1 (11719241_x_at) / RFU C5orf56 (11738088_a_at) / Fold change /veh C5orf56 (11738088_a_at) / RFU OLFML3 (11715873_a_at) / Fold change /veh OLFML3 (11715873_a_at) / RFU LOC100653217 /// NTM (11731650_a_at) / Fold change /veh LOC100653217 /// NTM (11731650_a_at) / RFU MAPK11 (11762145_a_at) / Fold change /veh MAPK11 (11762145_a_at) / RFU FIZ1 (11724087_x_at) / Fold change /veh FIZ1 (11724087_x_at) / RFU OASL (11726364_x_at) / Fold change /veh OASL (11726364_x_at) / RFU SOX15 (11748057_x_at) / Fold change /veh SOX15 (11748057_x_at) / RFU CD79A (11719716_a_at) / Fold change /veh CD79A (11719716_a_at) / RFU HIST1H1D (11736915_at) / Fold change /veh HIST1H1D (11736915_at) / RFU CASKIN2 (11723855_a_at) / Fold change /veh CASKIN2 (11723855_a_at) / RFU LOC730098 (11760151_x_at) / Fold change /veh LOC730098 (11760151_x_at) / RFU OR4N2 (11742367_at) / Fold change /veh OR4N2 (11742367_at) / RFU PRRT2 (11749266_a_at) / Fold change /veh PRRT2 (11749266_a_at) / RFU SNX32 (11753110_a_at) / Fold change /veh SNX32 (11753110_a_at) / RFU CDHR5 (11726645_a_at) / Fold change /veh CDHR5 (11726645_a_at) / RFU RCAN1 (11760418_a_at) / Fold change /veh RCAN1 (11760418_a_at) / RFU FAM167A (11723789_a_at) / Fold change /veh FAM167A (11723789_a_at) / RFU FAM26E (11764081_at) / Fold change /veh FAM26E (11764081_at) / RFU ISYNA1 (11749810_s_at) / Fold change /veh ISYNA1 (11749810_s_at) / RFU ACY1 (11761880_at) / Fold change /veh ACY1 (11761880_at) / RFU 11764098_at / Fold change /veh 11764098_at / RFU SAMD14 (11745864_x_at) / Fold change /veh SAMD14 (11745864_x_at) / RFU NPB (11741838_a_at) / Fold change /veh NPB (11741838_a_at) / RFU TMPRSS6 (11731388_a_at) / Fold change /veh TMPRSS6 (11731388_a_at) / RFU KRTAP10-2 (11738614_at) / Fold change /veh KRTAP10-2 (11738614_at) / RFU ARHGAP8 /// PRR5-ARHGAP8 (11727945_x_at) / Fold change /veh ARHGAP8 /// PRR5-ARHGAP8 (11727945_x_at) / RFU KRTAP5-7 /// NADSYN1 (11734609_at) / Fold change /veh KRTAP5-7 /// NADSYN1 (11734609_at) / RFU RASL12 (11751679_a_at) / Fold change /veh RASL12 (11751679_a_at) / RFU CDKN2B (11736163_a_at) / Fold change /veh CDKN2B (11736163_a_at) / RFU PRF1 (11729649_at) / Fold change /veh PRF1 (11729649_at) / RFU, ZNF638 /// ZNF638-IT1 / Fold change vs veh, ZNF638 /// ZNF638-IT1 / RFU, PANK3 / Fold change vs veh, PANK3 / RFU, SH3YL1 / Fold change vs veh, SH3YL1 / RFU, ZEB2 / Fold change vs veh, ZEB2 / RFU, NRIP1 / Fold change vs veh, NRIP1 / RFU, PTTG1IP / Fold change vs veh, PTTG1IP / RFU, CAPN2 / Fold change vs veh, CAPN2 / RFU, MED14 / Fold change vs veh, MED14 / RFU, SNORA58 / Fold change vs veh, SNORA58 / RFU, C1orf63 / Fold change vs veh, C1orf63 / RFU, LRRFIP1 / Fold change vs veh, LRRFIP1 / RFU, NDUFAF7 / Fold change vs veh, NDUFAF7 / RFU, SLC12A2 / Fold change vs veh, SLC12A2 / RFU, IBTK / Fold change vs veh, IBTK / RFU, ESF1 / Fold change vs veh, ESF1 / Fold change vs veh, TMEM50B / RFU, TAOK1 / Fold change vs veh, TAOK1 / RFU, ACBD3 / Fold change vs veh, ACBD3 / RFU, TMA16 / Fold change vs veh, TMA16 / RFU, RWDD3 / Fold change vs veh, RWDD3 / RFU, BCAT1 / Fold change vs veh, BCAT1 / RFU, EDEM3 / Fold change vs veh, EDEM3 / RFU, TMEM33 / Fold change vs veh, TMEM33 / RFU, WDR75 / Fold change vs veh, WDR75 / RFU, AHCTF1 / Fold change vs veh, AHCTF1 / RFU, TFRC / Fold change vs veh, TFRC / RFU, ZDHHC17 / Fold change vs veh, ZDHHC17 / RFU, NOM1 / Fold change vs veh, NOM1 / RFU, ARL8B / Fold change vs veh, ARL8B / RFU, ZBTB11 / Fold change vs veh, ZBTB11 / RFU, TAMM41 / Fold change vs veh, TAMM41 / RFU, KIAA1704 /// LOC100996395 / Fold change vs veh, KIAA1704 /// LOC100996395 / RFU, ING1 / Fold change vs veh, ING1 / RFU, TRMT61B / Fold change vs veh, TRMT61B / RFU, FUBP3 / Fold change vs veh, FUBP3 / RFU, TP53 / Fold change vs veh, TP53 / RFU, TNKS2 / Fold change vs veh, TNKS2 / RFU, ZFP14 / Fold change vs veh, ZFP14 / RFU, ACTR2 / Fold change vs veh, ACTR2 / RFU, PPP3R1 / Fold change vs veh, PPP3R1 / RFU, PIK3R1 / Fold change vs veh, PIK3R1 / RFU, HNRNPA1 / Fold change vs veh, HNRNPA1 / RFU, RNF170 / Fold change vs veh, RNF170 / RFU, ZNF28 / Fold change vs veh, ZNF28 / RFU, RNGTT / Fold change vs veh, RNGTT / RFU, OGT / Fold change vs veh, OGT / RFU, BRD1 / Fold change vs veh, BRD1 / RFU, MARS / Fold change vs veh, MARS / RFU, ZNF655 / Fold change vs veh, ZNF655 / RFU, FAHD1 / Fold change vs veh, FAHD1 / RFU, BDP1 / Fold change vs veh, BDP1 / RFU, LRRCC1 / Fold change vs veh, LRRCC1 / RFU, ARID1A / Fold change vs veh, ARID1A / RFU, ZNF146 / Fold change vs veh, ZNF146 / RFU, ZNF330 / Fold change vs veh, ZNF330 / RFU, GPN3 / Fold change vs veh, GPN3 / RFU, C9orf123 / Fold change vs veh, C9orf123 / RFU, N4BP2L2 / Fold change vs veh, N4BP2L2 / RFU, ARFIP1 / Fold change vs veh, ARFIP1 / RFU, FAM179B / Fold change vs veh, FAM179B / RFU, BCL10 / Fold change vs veh, BCL10 / RFU, UHRF1BP1L / Fold change vs veh, UHRF1BP1L / RFU, BET1 / Fold change vs veh, BET1 / RFU, CNOT2 / Fold change vs veh, CNOT2 / RFU, ZNF268 / Fold change vs veh, ZNF268 / Fold change vs veh, ZNF507 / RFU, DGCR2 / Fold change vs veh, DGCR2 / RFU, WDSUB1 / Fold change vs veh, WDSUB1 / Fold change vs veh, HSP90B1 /// MIR3652 / RFU, ADSS / Fold change vs veh, ADSS / RFU, GK / Fold change vs veh, GK / RFU, ZNF148 / Fold change vs veh, ZNF148 / RFU, TAF9 / Fold change vs veh, TAF9 / RFU, SLC1A5 / Fold change vs veh, SLC1A5 / RFU, SLMO2 / Fold change vs veh, SLMO2 / RFU, ABCC4 / Fold change vs veh, ABCC4 / RFU, LOC101060439 /// RAP1B / Fold change vs veh, LOC101060439 /// RAP1B / RFU, RFX7 / Fold change vs veh, RFX7 / RFU, GTPBP10 / Fold change vs veh, GTPBP10 / RFU, CNEP1R1 / Fold change vs veh, CNEP1R1 / RFU, BIVM-ERCC5 /// ERCC5 / Fold change vs veh, BIVM-ERCC5 /// ERCC5 / RFU, ILF3 / Fold change vs veh, ILF3 / RFU 11762660_at / Fold change /veh 11762660_at / RFU VCAN (11757783_s_at) / Fold change /veh VCAN (11757783_s_at) / RFU DDX43 (11728927_at) / Fold change /veh DDX43 (11728927_at) / RFU KRT8 (11758188_x_at) / Fold change /veh KRT8 (11758188_x_at) / RFU NKD1 (11759106_at) / Fold change /veh NKD1 (11759106_at) / RFU SRD5A1 (11742802_a_at) / Fold change /veh SRD5A1 (11742802_a_at) / RFU TPSAB1 /// TPSB2 (11721975_s_at) / Fold change /veh TPSAB1 /// TPSB2 (11721975_s_at) / RFU GSTM3 (11746129_a_at) / Fold change /veh GSTM3 (11746129_a_at) / RFU IL23R (11737362_x_at) / Fold change /veh IL23R (11737362_x_at) / RFU TMEM51 (11727254_a_at) / Fold change /veh TMEM51 (11727254_a_at) / RFU PIWIL2 (11732686_x_at) / Fold change /veh PIWIL2 (11732686_x_at) / RFU ORM1 (11744905_x_at) / Fold change /veh ORM1 (11744905_x_at) / RFU CCDC152 (11743942_at) / Fold change /veh CCDC152 (11743942_at) / RFU ECM1 (11717891_a_at) / Fold change /veh ECM1 (11717891_a_at) / RFU IL23R (11748794_a_at) / Fold change /veh IL23R (11748794_a_at) / RFU TNFAIP8L3 (11732012_x_at) / Fold change /veh TNFAIP8L3 (11732012_x_at) / RFU MBOAT4 (11741988_at) / Fold change /veh MBOAT4 (11741988_at) / RFU 11764193_at / Fold change /veh 11764193_at / RFU TMEM53 (11763286_at) / Fold change /veh TMEM53 (11763286_at) / RFU MAGEB2 (11727129_at) / Fold change /veh MAGEB2 (11727129_at) / RFU TMEM200A (11744735_a_at) / Fold change /veh TMEM200A (11744735_a_at) / RFU CCDC152 (11751479_a_at) / Fold change /veh CCDC152 (11751479_a_at) / RFU FAM211A (11726209_a_at) / Fold change /veh FAM211A (11726209_a_at) / RFU RGS16 (11746705_a_at) / Fold change /veh RGS16 (11746705_a_at) / RFU VCAN (11755009_s_at) / Fold change /veh VCAN (11755009_s_at) / RFU RHOB (11743442_s_at) / Fold change /veh RHOB (11743442_s_at) / RFU RGS16 (11720943_a_at) / Fold change /veh RGS16 (11720943_a_at) / RFU RGS16 (11720944_at) / Fold change /veh RGS16 (11720944_at) / RFU, VPS4B / Fold change vs veh, VPS4B / RFU, CREB1 / Fold change vs veh, CREB1 / RFU, DNAJC13 / Fold change vs veh, DNAJC13 / RFU, GNAQ / Fold change vs veh, GNAQ / RFU, CDK5R1 / Fold change vs veh, CDK5R1 / RFU, ZRANB3 / Fold change vs veh, ZRANB3 / RFU, CUL4A / Fold change vs veh, CUL4A / RFU, CCNY / Fold change vs veh, CCNY / RFU, UFL1 / Fold change vs veh, UFL1 / RFU, COG3 / Fold change vs veh, COG3 / RFU, DIAPH2 / Fold change vs veh, DIAPH2 / RFU, SKA2 / Fold change vs veh, SKA2 / RFU, AFF3 / Fold change vs veh, AFF3 / RFU, LMF1 / Fold change vs veh, LMF1 / RFU, IPO11 / Fold change vs veh, IPO11 / RFU, DFFB / Fold change vs veh, DFFB / RFU, FOXP1 / Fold change vs veh, FOXP1 / RFU, CARD8 / Fold change vs veh, CARD8 / RFU, STRN3 / Fold change vs veh, STRN3 / RFU, ADK / Fold change vs veh, ADK / RFU, RASSF2 / Fold change vs veh, RASSF2 / RFU, WIPF1 / Fold change vs veh, WIPF1 / RFU, LARP1B / Fold change vs veh, LARP1B / RFU, RASA1 / Fold change vs veh, RASA1 / RFU, RB1 / Fold change vs veh, RB1 / RFU, PPFIA1 / Fold change vs veh, PPFIA1 / RFU, MAT2A / Fold change vs veh, MAT2A / RFU, CCT5 / Fold change vs veh, CCT5 / RFU, WDR92 / Fold change vs veh, WDR92 / RFU, CUX1 / Fold change vs veh, CUX1 / RFU, TTC7A / Fold change vs veh, TTC7A / RFU, TMEM135 / Fold change vs veh, TMEM135 / RFU, DEPTOR / Fold change vs veh, DEPTOR / RFU, CPM / Fold change vs veh, CPM / RFU, DNAJB6 / Fold change vs veh, DNAJB6 / RFU, CACNA2D3 / Fold change vs veh, CACNA2D3 / RFU, DTX4 / Fold change vs veh, DTX4 / RFU, TFCP2 / Fold change vs veh, TFCP2 / RFU, GMCL1 /// GMCL1P1 / Fold change vs veh, GMCL1 /// GMCL1P1 / RFU, AEBP2 / Fold change vs veh, AEBP2 / RFU, SNHG1 /// SNORD22 /// SNORD25 /// SNORD26 /// SNORD27 /// SNORD28 /// SNORD29 /// SNORD31 / Fold change vs veh, SNHG1 /// SNORD22 /// SNORD25 /// SNORD26 /// SNORD27 /// SNORD28 /// SNORD29 /// SNORD31 / Fold change (Aza/veh), C12orf56 (ProbeSet 11735607_a_at) / Fold change (ACY-1035/veh), C12orf56 (ProbeSet 11735607_a_at) / Fold change (Aza/veh), FGFR1OP (ProbeSet 11751329_s_at) / Fold change (ACY-1035/veh), FGFR1OP (ProbeSet 11751329_s_at) / Fold change (Aza/veh), VPS36 (ProbeSet 11739960_a_at) / Fold change (ACY-1035/veh), VPS36 (ProbeSet 11739960_a_at) / RFU SYPL1 (11715823_x_at) / Fold change /veh SYPL1 (11715823_x_at) / RFU IGFBP7 (11715501_s_at) / Fold change /veh IGFBP7 (11715501_s_at) / RFU REEP3 (11722064_at) / Fold change /veh REEP3 (11722064_at) / RFU IGLL1 (11728026_x_at) / Fold change /veh IGLL1 (11728026_x_at): dose or concentration left out as unconfirmed
Details: MV-4-11 cells, 48 hours

## Nc1ncn([C@@H]2O[C@H](CO)[C@@H](O)[C@H]2O)c(=O)n1 [azacitidine]
  Fold change /veh RNFT2 (11725882_a_at): 1.12
